≈ marks a conversion by molar mass, not a printed value. Where “and” joins values, the source holds several entries; their conditions need not be identical. Equal values may be shown once. Where a name gives a salt, the structure may show the parent alone.
Legend:
[1] = test system: PC-3 prostate cancer cells; experiment: Example T: sensitisation of PC-3 cells to doxorubicin, oxaliplatin, paclitaxel or vincristine, Wst1; assay type: cell-based, human; conditions: PC-3 cells, 72 hours; for Doxorubicin 3.5 μM: percent cell survival / Oxaliplatin 100 μM: percent cell survival / Paclitaxel 50 μM: percent cell survival / Vincristine 100 nM: percent cell survival: chemotherapy agent alone normalized to 100%; for viability at 0.4 µM: compound 0.4 μM alone; for viability at 2.5 µM: compound 2.5 μM alone
THP-1 cells = experiment: Example D: LPS-triggered THP-1 cell death assay, acute/5-hour and chronic/48-hour; assay type: cell-based, Human; conditions: for Viable cell percent change, Chronic/48-hour, Mean: 10 ng/ml LPS, 0.1 μM test compound; for activity relative to AC in the LPS-triggered THP-1 cell death assay, in words: 0.1 μM, 5-hour and 48-hour time points
Experimental: Compounds of the invention were tested at 0.1 μM versus AC in the LPS-triggered THP-1 cell death assay. Both acute/5-hour and chronic/48-hour phases of cell death were assessed. Compounds were screened in batches with DMSO as the negative control and AC as the high activity control.

Trichophyton rubrum = experiment: Example J: Trichophyton rubrum growth inhibition, scoring by eye; assay type: cell-based; conditions: Trichophyton rubrum, 144 h; 6 days at 30° C., tested 6 to 40 μM; read-out: MIC, μM (maximum inhibition concentration, scoring by eye)
In short: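 Filtered T. rubrum suspension from PDA plates (grown 4 days, 30 °C) treated with diluted compounds in triplicate, incubated 6 days at 30 °C. Plates imaged; MIC scored by eye.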

S. cerevisiae = experiment: Example I: Saccharomyces cerevisiae growth inhibition (OD 600 nm); assay type: cell-based; conditions: Saccharomyces cerevisiae, 18 hour incubation at 30° C., OD 600 nm, XLfit; for IC50: read-out: IC50, uM (50% inhibition of fungal growth); for MIC: read-out: MIC, uM (99% of inhibition of fungal growth)
[2] = Homo sapiens, Wst1, vehicle = 100, read-out: No Chemo: percent cell survival
[3] = compound 0.4 μM + doxorubicin 3.5 μM
[4] = compound 0.4 μM + oxaliplatin 100 μM
[5] = compound 0.4 μM + paclitaxel 50 μM
[6] = compound 0.4 μM + vincristine 100 nM
[7] = compound 2.5 μM + doxorubicin 3.5 μM
[8] = compound 2.5 μM + oxaliplatin 100 μM
[9] = compound 2.5 μM + paclitaxel 50 μM
[10] = compound 2.5 μM + vincristine 100 nM

| SMILES | Viable cell percent change, Chronic/48-hour, Mean (THP-1 cells) | MIC (Trichophyton rubrum) | viability at 0.4 µM [1, 2] | Doxorubicin 3.5 μM: percent cell survival [1, 3] | Oxaliplatin 100 μM: percent cell survival [1, 4] | Paclitaxel 50 μM: percent cell survival [1, 5] | Vincristine 100 nM: percent cell survival [1, 6] | IC50 (S. cerevisiae) | MIC (S. cerevisiae) | also measured |
| --- | --- | --- | --- | --- | --- | --- | --- | --- | --- | --- |
| CCCCCCOc1ccc(CNc2ccnc3ccccc23)cc1 [AA, N-[4-(Hexyloxy)benzyl]quinolin-4-amine] | – | – | – | – | – | – | – | – | – | viability at 1.5 µM ([1]; Homo sapiens, compound 1.5 μM alone, Wst1, vehicle = 100, read-out: No Chemo: percent cell survival): 82.6%; Doxorubicin 3.5 μM: percent cell survival ([1]; compound 1.5 μM + doxorubicin 3.5 μM): 38.6%; Oxaliplatin 100 μM: percent cell survival ([1]; compound 1.5 μM + oxaliplatin 100 μM): 31%; Paclitaxel 50 μM: percent cell survival ([1]; compound 1.5 μM + paclitaxel 50 μM): 22.2%; Vincristine 100 nM: percent cell survival ([1]; compound 1.5 μM + vincristine 100 nM): 43% |
| c1ccc(Oc2cccc(CNc3ccnc4ccccc34)c2)cc1 [AF, N-(3-Phenoxybenzyl)quinolin-4-amine] | 13.79% | > 40 µM | 19.1% | 35% | 32.4% | 25.2% | 22.6% | – | – | activity relative to AC in the LPS-triggered THP-1 cell death assay, in words (THP-1 cells): more active than AC at the chronic/48-hour time point |
| CCCCCCOCCCCCCCCn1cnc2cnccc21 [AS, 1-[8-(Hexyloxy)octyl]-1H-imidazo[4,5-c]pyridine] | 3.86% | 25 µM (≈ 8.29 µg/mL) | – | – | – | – | – | 38.5 µM | 48.9 µM (≈ 16.2 µg/mL) | viability at 2.5 µM [1, 2]: 31.1%; Doxorubicin 3.5 μM: percent cell survival [1, 7]: 51.1%; Oxaliplatin 100 μM: percent cell survival [1, 8]: 55.5%; Paclitaxel 50 μM: percent cell survival [1, 9]: 36.8%; Vincristine 100 nM: percent cell survival [1, 10]: 30.8% |
| CCCCOCCCCCCCCCCn1cnc2cnccc21 [AT, 1-(10-Butoxydecyl)-1H-imidazo[4,5-c]pyridine] | 30.34% | 6 µM (≈ 1.99 µg/mL) | 34.6% | 65.4% | 76.8% | 57.4% | 32.9% | – | – | – |
| CCCCCCOCCCCCCCCNc1ccncn1 [AU, N-[8-(Hexyloxy)octyl]pyrimidin-4-amine] | 16.86% | 12 µM (≈ 3.69 µg/mL) | – | – | – | – | – | 18 µM | 24.3 µM (≈ 7.46 µg/mL) | viability at 2.5 µM [1, 2]: 32.4%; Doxorubicin 3.5 μM: percent cell survival [1, 7]: 25.7%; Oxaliplatin 100 μM: percent cell survival [1, 8]: 41.1%; Paclitaxel 50 μM: percent cell survival [1, 9]: 34.2%; Vincristine 100 nM: percent cell survival [1, 10]: 32% |
| CCCCCCOCCCCCCCCNc1cc(C)nc2ccccc12 [AV, N-[8-(Hexyloxy)octyl]-2-methylquinolin-4-amine] | 38.76% | 25 µM (≈ 9.26 µg/mL) | – | – | – | – | – | 19.7 µM | 19.8 µM (≈ 7.32 µg/mL) | viability at 2.5 µM [1, 2]: 38.2%; Doxorubicin 3.5 μM: percent cell survival [1, 7]: 62.6%; Oxaliplatin 100 μM: percent cell survival [1, 8]: 59.3%; Paclitaxel 50 μM: percent cell survival [1, 9]: 34.4%; Vincristine 100 nM: percent cell survival [1, 10]: 37.2% |
| CCCCCCOc1cccc(OCCCNc2ccnc3ccccc23)c1 [AZ, N-{3-[3-(Hexyloxy)phenoxy]propyl}quinolin-4-amine] | 50.12% | 18 µM (≈ 6.81 µg/mL) | 95.4% | 33.6% | 26.9% | 54.1% | 71.2% | 18.6 µM | 24.1 µM (≈ 9.11 µg/mL) | – |
| Cc1cccc(OCCCCCCCCNc2ccnc3ccccc23)c1 [BE, N-[8-(m-Tolyloxy)octyl]quinolin-4-amine] | 33.86% | 12 µM (≈ 4.35 µg/mL) | 99.1% | 44.1% | 41.2% | 64% | 74.9% | 19.2 µM | 24.1 µM (≈ 8.75 µg/mL) | – |
| Cc1ccc(OCCCCCCCCNc2ccnc3ccccc23)cc1 [BF, N-[8-(p-Tolyloxy)octyl]quinolin-4-amine] | 31.64% | 18 µM (≈ 6.53 µg/mL) | 92.8% | 40.9% | 37.2% | 57.1% | 74.1% | 20.8 µM | 32 µM (≈ 11.6 µg/mL) | – |
| Cc1ccccc1OCCCCCCCCNc1ccnc2ccccc12 [BG, N-[8-(o-Tolyloxy)octyl]quinolin-4-amine] | – | 12 µM (≈ 4.35 µg/mL) | 99.1% | 40.1% | 36.2% | 59.2% | 71.1% | 9.88 µM | 11.8 µM (≈ 4.29 µg/mL) | Viable cell percent change, Chronic/48-hour, Mean (THP-1 cells; 0.1 µM): 38.39% and 31.07% |
| Fc1cccc(OCCCCCCCCNc2ccnc3ccccc23)c1 [BI, N-[8-(3-Fluorophenoxy)octyl]quinolin-4-amine] | 27.30% | 18 µM (≈ 6.6 µg/mL) | 111% | 76.6% | 84.3% | 71.7% | 81.7% | 28.6 µM | 47.1 µM (≈ 17.3 µg/mL) | – |
| Fc1ccc(OCCCCCCCCNc2ccnc3ccccc23)cc1 [BJ, N-[8-(4-Fluorophenoxy)octyl]quinolin-4-amine] | 18.03% | 18 µM (≈ 6.6 µg/mL) | 23.9% | 56.8% | 64.1% | 50.2% | 50.8% | 21.4 µM | 37.8 µM (≈ 13.9 µg/mL) | – |
| CCCCCCOc1ccc(CNc2ccnc3ccccc23)cc1F [BK, N-[3-Fluoro-4-(hexyloxy)benzyl]quinolin-4-amine] | 43.69% | – | 29.2% | 32.1% | 27.3% | 20.6% | 28.3% | 21.4 µM | 29.4 µM (≈ 10.4 µg/mL) | activity relative to AC in the LPS-triggered THP-1 cell death assay, in words (THP-1 cells): equivalent activity to AC at both the 5-hour and 48-hour time points |
| CCCCCCOCCCCCCCC[n+]1ccc(N)cc1 [BO, 4-Amino-1-[8-(hexyloxy)octyl]pyridinium salts] | 28.35% | > 40 µM | 13.4% | 82.4% | 28.4% | 28.2% | 18.4% | – | – | – |

— patent publication US20250034139A1, “AMINE COMPOUNDS HAVING ANTI-INFLAMMATORY, ANTIFUNGAL, ANTIPARASITIC, AND ANTICANCER ACTIVITY” (PHARMA CINQ, LLC, priority 2013, published 2025)
